The record followed here is BindingDB's records for doi:10.7270/Q2F18X40 (Nmmlsc, 2009).

The target of the experiment is Ras-related protein Rab-7a (Canis lupus familiaris, UniProt P18067). The experiment can be described thus: analogs blocking nucleotide binding to wildtype Rab7 – biochemical, oxadiazole analogs, multiplex bead flow cytometry, SAR follow-up (AID 2031). To be noted: inactive by the depositor's call.

Molecules are shown by their SMILES.

Chain of Ras-related protein Rab-7a (P18067 whole entry): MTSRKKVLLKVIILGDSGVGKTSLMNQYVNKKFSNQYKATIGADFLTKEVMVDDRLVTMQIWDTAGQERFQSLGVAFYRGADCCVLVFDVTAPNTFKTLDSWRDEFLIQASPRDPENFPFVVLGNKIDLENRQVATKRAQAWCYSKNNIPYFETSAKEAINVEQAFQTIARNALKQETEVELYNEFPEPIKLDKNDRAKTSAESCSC

The compound `COc1ccc(-c2noc(CCC(=O)N3CCN(c4cccc(C)c4)CC3)n2)cc1` [UNM-0000306125] displayed an EC50 of 30 µM.

As for `Cc1cccc(-c2noc(CCC(=O)N3CCN(c4cc(C)ccc4C)CC3)n2)c1` [1-[4-(2,5-dimethylphenyl)piperazin-1-yl]-3-[3-(3-methylphenyl)-1,2,4-oxadiazol-5-yl]propan-1-one], the EC50 came to 1.03 µM.

In turn, `COc1ccc(-c2noc(CCC(=O)N3CCN(c4cccc(OC)c4)CC3)n2)cc1` [KUC103349N] showed an EC50 of 30 µM.

With `COc1ccc(-c2noc(CCC(=O)N3CCN(c4cccc(Cl)c4)CC3)n2)cc1`, the response was half-maximal at 31 µM (EC50).

The compound `COc1ccc(-c2noc(CC(=O)N3CCN(c4cc(C)ccc4C)CC3)n2)cc1` [1-[4-(2,5-dimethylphenyl)piperazin-1-yl]-2-[3-(4-methoxyphenyl)-1,2,4-oxadiazol-5-yl]ethanone] returned an EC50 of 30 µM.

In turn, `Cc1ccc(C)c(N2CCN(C(=O)CCc3nc(-c4cccc(F)c4)no3)CC2)c1` [KUC103366N] came in with an EC50 of 7.85 µM. Compared with the last compound, the EC50 is about 3.8-fold lower.

`COc1ccc(-c2ccc(CCC(=O)N3CCN(c4cc(C)ccc4C)CC3)[nH]2)cc1` [1-[4-(2,5-dimethylphenyl)piperazin-1-yl]-3-[5-(4-methoxyphenyl)-1H-pyrrol-2-yl]propan-1-one] registered an EC50 of 30 µM. This EC50 lies about 3.8-fold higher than the previous one.

Consider `Cc1ccc(C)c(N2CCN(C(=O)CCc3nc(-c4ccccc4C)no3)CC2)c1`, for which the EC50 is 5.46 µM.

Compound `COc1cccc(-c2noc(CCC(=O)N3CCN(c4cc(C)ccc4C)CC3)n2)c1` came in with an EC50 of 3.43 µM. Compared with the last compound, the EC50 is about 1.6-fold lower.

In turn, `Cc1ccc(C)c(N2CCN(C(=O)CCc3nc(-c4ccc(Br)cc4)no3)CC2)c1` [UNM-0000306072] showed an EC50 of 1.6 µM.

In turn, `COc1ccc(-c2noc(CCC(=O)N3CCN(c4cc(C)ccc4C)CC3)n2)cc1` [1-[4-(2,5-dimethylphenyl)-1-piperazinyl]-3-[3-(4-methoxyphenyl)-1,2,4-oxadiazol-5-yl]-1-propanone] gave an EC50 of 2.39 µM. This EC50 and that of the compound before are within 1.5-fold of each other.

In turn, `Cc1ccc(C)c(N2CCN(C(=O)CCc3nc(-c4ccc(F)cc4)no3)CC2)c1` [KUC103364N] returned an EC50 of 0.664 µM.

With `Cc1ccc(C)c(N2CCN(C(=O)CCc3nc(-c4cccc(C(F)(F)F)c4)no3)CC2)c1` [KUC103380N], the EC50 was found to be 0.708 µM. This EC50 and that of the compound before are within 1.5-fold of each other.

As to `COc1ccc(-c2noc(CCCCC(=O)N3CCN(c4cc(C)ccc4C)CC3)n2)cc1` [1-[4-(2,5-dimethylphenyl)-1-piperazinyl]-5-[3-(4-methoxyphenyl)-1,2,4-oxadiazol-5-yl]-1-pentanone], the EC50 amounted to 30 µM.

For `Cc1ccc(C)c(N2CCN(C(=O)CCc3nc(-c4ccccc4Br)no3)CC2)c1` [3-[3-(2-bromophenyl)-1,2,4-oxadiazol-5-yl]-1-[4-(2,5-dimethylphenyl)-1-piperazinyl]-1-propanone], the EC50 was 4.2 µM.

`COc1ccc(-c2cccc(CCC(=O)N3CCN(c4cc(C)ccc4C)CC3)c2)cc1` [UNM-0000306127] yielded an EC50 of 30 µM.

In turn, `COc1ccc(-c2noc(CCC(=O)N3CCN(c4ccc(Cl)cc4)CC3)n2)cc1` [UNM-0000306121] showed an EC50 of 30 µM.

`Cc1ccc(C)c(N2CCN(C(=O)CCc3nc(-c4cccc(Cl)c4)no3)CC2)c1` [UNM-0000306086] had an EC50 of 30 µM.

In the case of `Cc1ccc(C)c(N2CCN(C(=O)CCc3nc(-c4ccccc4C(F)(F)F)no3)CC2)c1`, the EC50 came to 30 µM. In other words, the double-digit micromolar range.

On to `Cc1ccc(C)c(N2CCN(C(=O)CCc3nc(-c4ccccc4F)no3)CC2)c1` [KUC103401N], for which the EC50 amounted to 30 µM.

In the case of `COc1ccc(-c2ccc(CCC(=O)N3CCN(c4cc(C)ccc4C)CC3)o2)cc1` [KUC103447N], the response was half-maximal at 30 µM (EC50). That is a double-digit micromolar value.

Regarding `Cc1ccc(C)c(N2CCN(C(=O)CCc3nc(-c4ccc(Cl)cc4)no3)CC2)c1` [UNM-0000306083], the EC50 stood at 2.91 µM.

`COc1ccc(-c2noc(CCC(=O)N3CCN(c4ccc(OC)cc4)CC3)n2)cc1` [3-[3-(4-methoxyphenyl)-1,2,4-oxadiazol-5-yl]-1-[4-(4-methoxyphenyl)piperazin-1-yl]propan-1-one]: the EC50 came to 30 µM.

On to `COc1ccc(-c2cc(CCC(=O)N3CCN(c4cc(C)ccc4C)CC3)[nH]n2)cc1` [UNM-0000306150], for which it took 30 µM to reach a half-maximal effect (EC50). In other words, the double-digit micromolar range.

Turning to `Cc1ccc(-c2noc(CCC(=O)N3CCN(c4cc(C)ccc4C)CC3)n2)cc1` [1-[4-(2,5-dimethylphenyl)-1-piperazinyl]-3-[3-(4-methylphenyl)-1,2,4-oxadiazol-5-yl]-1-propanone], the EC50 was determined as 4.39 µM. This EC50 lies about 6.8-fold lower than the previous one.

With `COc1ccc(-c2noc(CCC(=O)N3CCN(c4ccc(F)cc4)CC3)n2)cc1` [KUC103398N], a half-maximal response (EC50) required 30 µM.

The compound `Cc1ccc(C)c(N2CCN(C(=O)CCc3nc(-c4cccc(Br)c4)no3)CC2)c1` [KUC103367N] yielded a 50% effective concentration (EC50) of 3.51 µM. This EC50 lies about 8.5-fold lower than the previous one.

For the compound `COc1ccc(-c2noc(CCC(=O)N3CCN(c4ccccc4Cl)CC3)n2)cc1` [1-[4-(2-chlorophenyl)piperazin-1-yl]-3-[3-(4-methoxyphenyl)-1,2,4-oxadiazol-5-yl]propan-1-one], the midpoint of the response, the EC50, lay at 2.28 µM. Against the preceding compound, the EC50 is about 1.5-fold lower.

`COc1ccc(-c2noc(CCC(=O)N3CCN(c4ccccc4F)CC3)n2)cc1` [1-[4-(2-fluorophenyl)piperazin-1-yl]-3-[3-(4-methoxyphenyl)-1,2,4-oxadiazol-5-yl]propan-1-one] came in with an EC50 of 0.632 µM.

In turn, `COc1ccc(-c2coc(CCC(=O)N3CCN(c4cc(C)ccc4C)CC3)n2)cc1` [1-[4-(2,5-dimethylphenyl)piperazin-1-yl]-3-[4-(4-methoxyphenyl)-1,3-oxazol-2-yl]propan-1-one] displayed an EC50 of 30 µM.

Compound `COc1ccc(-c2noc(CCC(=O)N3CCC(c4cc(C)ccc4C)CC3)n2)cc1` [KUC103432N] returned an EC50 of 1.33 µM. Against the preceding compound, the EC50 is about 23-fold lower.

With `COc1ccc(-c2noc(CCC(=O)N3CCN(c4ccccc4OC)CC3)n2)cc1` [3-[3-(4-methoxyphenyl)-1,2,4-oxadiazol-5-yl]-1-[4-(2-methoxyphenyl)-1-piperazinyl]-1-propanone], the EC50 turned out to be 30 µM.

`COc1ccc(-c2cc(CCC(=O)N3CCN(c4cc(C)ccc4C)CC3)on2)cc1` [1-[4-(2,5-dimethylphenyl)piperazin-1-yl]-3-[3-(4-methoxyphenyl)-1,2-oxazol-5-yl]propan-1-one] showed an EC50 of 0.305 µM. Against the preceding compound, the EC50 is about 98-fold lower.

Consider `Cc1ccc(C)c(N2CCN(C(=O)CCc3nc(-c4ccccc4)no3)CC2)c1` [UNM-0000306070], for which the EC50 is 1.16 µM.

In the case of `Cc1ccc(C)c(N2CCN(C(=O)CCc3nc(-c4ccc(C(F)(F)F)cc4)no3)CC2)c1` [1-[4-(2,5-dimethylphenyl)-1-piperazinyl]-3-[3-[4-(trifluoromethyl)phenyl]-1,2,4-oxadiazol-5-yl]-1-propanone], the EC50 was 30 µM. Compared with the last compound, the EC50 is about 26-fold higher.

`COc1ccc(-c2noc(CCC(=O)N3CCN(c4cccc(Br)c4)CC3)n2)cc1` [1-[4-(3-bromophenyl)-1-piperazinyl]-3-[3-(4-methoxyphenyl)-1,2,4-oxadiazol-5-yl]-1-propanone] returned an EC50 of 30 µM.

`Cc1ccc(C)c(N2CCN(C(=O)CCc3nc(-c4ccc(N(C)C)cc4)no3)CC2)c1` [KUC103409N] showed an EC50 of 30 µM.

On to `COc1ccc(-c2noc(CCC(=O)N3CCN(c4cccc(C(F)(F)F)c4)CC3)n2)cc1` [1-{3-[3-(4-methoxyphenyl)-1,2,4-oxadiazol-5-yl]propanoyl}-4-[3-(trifluoromethyl)phenyl]piperazine], for which the EC50 is 30 µM.

Regarding `COc1ccc(-c2noc(CCC(=O)N3CCN(c4ccccc4C)CC3)n2)cc1`, the midpoint of the response, the EC50, lay at 30 µM. In other words, the double-digit micromolar range.

As for `COc1ccc(-c2noc(CCC(=O)N3CCN(c4ccccc4Br)CC3)n2)cc1` [KUC103370N], the EC50 was 2.24 µM.

`COc1ccc(-c2noc(CCC(=O)N3CCN(c4ccc(C(F)(F)F)cc4)CC3)n2)cc1` [3-[3-(4-methoxyphenyl)-1,2,4-oxadiazol-5-yl]-1-[4-[4-(trifluoromethyl)phenyl]piperazin-1-yl]propan-1-one] registered an EC50 of 30 µM.

Take `COc1ccc(-c2noc(CCC(=O)N3CCN(c4ccccc4)CC3)n2)cc1` [3-[3-(4-methoxyphenyl)-1,2,4-oxadiazol-5-yl]-1-(4-phenylpiperazin-1-yl)propan-1-one]: the EC50 was determined as 30 µM.

`COc1ccc(-c2noc(CCC(=O)N3CCN(c4ccc(Br)cc4)CC3)n2)cc1` [1-[4-(4-bromophenyl)piperazin-1-yl]-3-[3-(4-methoxyphenyl)-1,2,4-oxadiazol-5-yl]propan-1-one] yielded an EC50 of 30 µM.

`COc1ccc(-c2noc(CCC(=O)N3CCN(c4ccc(C)cc4)CC3)n2)cc1` [3-[3-(4-methoxyphenyl)-1,2,4-oxadiazol-5-yl]-1-[4-(4-methylphenyl)piperazin-1-yl]propan-1-one] displayed an EC50 of 30 µM.

`COc1ccc(-c2noc(CCC(=O)N3CCN(c4cccc(C)c4C)CC3)n2)cc1` [1-[4-(2,3-dimethylphenyl)-1-piperazinyl]-3-[3-(4-methoxyphenyl)-1,2,4-oxadiazol-5-yl]-1-propanone] gave an EC50 of 1.56 µM.

Regarding `COc1ccccc1-c1noc(CCC(=O)N2CCN(c3cc(C)ccc3C)CC2)n1` [UNM-0000306071], the EC50 was 30 µM.

`COc1ccc(-c2noc(CCC(=O)N3CCN(c4ccccc4C(F)(F)F)CC3)n2)cc1` [UNM-0000306082] yielded an EC50 of 1.95 µM.

On to `Cc1ccc(C)c(N2CCN(C(=O)CCc3nc(-c4ccccc4Cl)no3)CC2)c1` [3-[3-(2-chlorophenyl)-1,2,4-oxadiazol-5-yl]-1-[4-(2,5-dimethylphenyl)-1-piperazinyl]-1-propanone], for which the response was half-maximal at 30 µM (EC50).

`COc1ccc(-c2noc(CCC(=O)N3CCN(c4cccc(F)c4)CC3)n2)cc1` [1-[4-(3-fluorophenyl)piperazin-1-yl]-3-[3-(4-methoxyphenyl)-1,2,4-oxadiazol-5-yl]propan-1-one]: the EC50 is 30 µM.

Regarding `COc1ccc(-c2ccc(CCC(=O)N3CCN(c4cc(C)ccc4C)CC3)s2)cc1`, the EC50 turned out to be 30 µM. In other words, the double-digit micromolar range.

Compound `COc1ccc(-c2noc(CCCC(=O)N3CCN(c4cc(C)ccc4C)CC3)n2)cc1` [KUC103353N] came in with an EC50 of 14.4 µM.
